{"source": "patent US6399618B1", "about": "“Compositions and methods for modulating sexual activity” (priority 1997, dated 2002)", "key": {"[1]": {"system": "noradrenaline pre-contracted rabbit CC", "experiment": "Direct action on penile erection: tone of corpus cavernosal muscle strips in organ bath", "conditions": "concentration from 10^-8 M to 10^-4 M; n=6", "experimental": "Corpus cavernosal (CC) muscle strips were prepared from penises obtained from rabbit (n=6). CC strips were dissected free from tunica albungia and mounted in 10 or 25 mL organ baths containing Tyrode solution saturated with 95%O2/5% CO2 mixture."}, "male primates": {"system": "male primates", "experiment": "Sexual behavior in male primates, paired observation study (penile response grades)", "assay_type": "in vivo, macaca fascilaris", "conditions": "1.0 mg/kg ip; N=3; observed 1 hour", "experimental": "Monkeys used for testing were separated from the cluster of cages and treated and observed in pairs in the middle of the housing environment.\nN=3 for all drug-treated animals, while N=18 for saline-treated animals. […] Data are expressed as the number of test animals having a particular grade of penile response. Penile responses were scored every 10 sec for 1 hour according to the following scale:\nGrade 0=glans are hidden from the view\nGrade 1=glans are clearly visible\nGrade 2=penis is extended\nGrade 4=erection with masturbation\nGrade 5=erection with masturbation and ejaculation"}, "male rats [2]": {"system": "male rats", "experiment": "Rat sexual behavior, proerectile actions (injected)", "assay_type": "in vivo, SD rats", "conditions": "for Erections/60 minutes / Latency to the first erection: mean±sem; for Erections/60 minutes / Latency to the first erection / Responders: n=10", "experimental": "Male SD rats (350-450 g; n=10 per group) were injected with increasing doses of XVIb (4.0-64.0 mg/kg), XVIa (1.0, 4.0 or 16 mg/kg) or saline and observed 5 minutes later, in groups of 5, for the number of erections and the time to the first erection, over a 60 minutes observation period.\nIn Table 2, the effects of XVIb, XVIa and saline on erection in male rats is indicated. Data is expressed as the mean±sem for 10 test animals. Data marked with an asterisk “*” indicate significant difference from saline (α<0.05) as determined by ANOVA with Tukey test for multiple comparisons."}, "male rats [3]": {"system": "male rats", "experiment": "Antagonism of XVIb-induced erections by comparative compounds in rats", "assay_type": "in vivo, SD rats", "conditions": "for antagonism of the erectile promoting actions of XVIb: injected 30 minutes prior to XVIb 16 mg/kg ip, pindolol 0.1-3, scopolamine 0.1-3.0, haloperidol 0.01-0.3, ketanserin 0.1-3.0 mg/kg", "experimental": "Male SD rats (300-500 g; n=6 per group) were injected with (±)-Pindolol, scopolamine, haloperidol, or ketanserin, 30 minutes prior to injection of a single dose of XVIb (16 mg/kg, ip) or saline."}, "male rats [4]": {"system": "male rats", "experiment": "Rat sexual behavior, proerectile actions of XVIIa and XVIIb (ip)", "assay_type": "in vivo, SD rats", "conditions": "16 mg/kg ip", "experimental": "Male SD rats (250-300 g) were injected with XVIIa (16 mg/kg, ip), XVIIb (16 mg/kg, ip) or distilled water (ip), and observed 5 minutes later for the number of erections (as characterized by penile grooming) and the time to the first erection, over a 60 minute observation period. Six rats at a time, housed singly, were observed by two observers. Treatments were administered in a standard randomized and double blinded manner."}}, "note": "Where a name gives a salt, the structure may show the parent alone. Marks after values point to notes of the source that are not given here.", "data": [{"molecule": "1-methyl-4-trifluoromethylphenylpiperazine", "values": [{"measurement": "effect on tone of noradrenaline pre-contracted rabbit CC", "setting": "[1]", "result": "failed to reduce tone"}]}, {"molecule": "CN1CCN(C(=O)Cc2cccc3ccccc23)CC1", "note": "[XVIa, 1-Methyl-4(1-naphthaleneacetyl)piperazine monohydrochloride]", "values": [{"measurement": "number of test animals having Grade 0 penile response (glans are hidden from the view)", "setting": "male primates", "result": 1}, {"measurement": "number of test animals having Grade 1 penile response (glans are clearly visible)", "setting": "male primates", "result": 2}, {"measurement": "number of test animals having Grade 2 penile response (penis is extended)", "setting": "male primates", "result": 2}, {"measurement": "number of test animals having Grade 3 penile response (full erection)", "setting": "male primates", "result": 1}, {"measurement": "number of test animals having Grade 4 penile response (erection with masturbation)", "setting": "male primates", "result": 1}, {"measurement": "number of test animals having Grade 5 penile response (erection with masturbation and ejaculation)", "setting": "male primates", "result": 0}, {"measurement": "Erections/60 minutes", "setting": "male rats [2]; 1.0 mg/kg", "result": "1.2 ± 0.3"}, {"measurement": "Latency to the first erection", "setting": "male rats [2]; 1.0 mg/kg", "result": "1929 ± 432", "unit": "s"}, {"measurement": "Responders", "setting": "male rats [2]; 1.0 mg/kg", "result": 100, "unit": "%"}, {"measurement": "Erections/60 minutes", "setting": "male rats [2]; 4.0 mg/kg", "result": "3.0 ± 0.6"}, {"measurement": "Latency to the first erection", "setting": "male rats [2]; 4.0 mg/kg", "result": "1749 ± 349", "unit": "s"}, {"measurement": "Responders", "setting": "male rats [2]; 4.0 mg/kg", "result": 100, "unit": "%"}, {"measurement": "Erections/60 minutes", "setting": "male rats [2]; 16.0 mg/kg", "result": "5.4 ± 0.7* #"}, {"measurement": "Latency to the first erection", "setting": "male rats [2]; 16.0 mg/kg", "result": "506 ± 105* sec"}, {"measurement": "Responders", "setting": "male rats [2]; 16.0 mg/kg", "result": 100, "unit": "%"}, {"measurement": "effect on penile erections (in words)", "setting": "male rats [2]; 60 minutes observation", "result": "increased penile erections, although to a lesser degree than XVIb"}]}, {"molecule": "CC(C)NCC(O)COc1cccc2[nH]ccc12", "note": "(racemic) [(±)-Pindolol]", "values": [{"measurement": "erections after (±)-pindolol pretreatment plus XVIb", "setting": "male rats [3]; highest dose tested of (±)-pindolol, XVIb 16 mg/kg ip, n=6", "result": "2.0±0.4", "unit": "erections/60 minutes"}, {"measurement": "antagonism of the erectile promoting actions of XVIb", "setting": "male rats [3]", "result": "antagonized the erectile promoting actions"}]}, {"molecule": "O=c1n(CCCN2CCN(c3cccc(Cl)c3)CC2)nc2ccccn12", "note": "[Trazodone]", "values": [{"measurement": "effect on tone of noradrenaline pre-contracted rabbit CC", "setting": "[1]", "result": "reduced tone of rabbit CC in a dose dependent manner"}]}, {"molecule": "CN1[C@@H]2C[C@@H](OC(=O)[C@H](CO)c3ccccc3)C[C@H]1[C@@H]1O[C@@H]12", "note": "[scopolamine]", "values": [{"measurement": "antagonism of the erectile promoting actions of XVIb", "setting": "male rats [3]", "result": "antagonized the erectile promoting actions"}, {"measurement": "erections after scopolamine pretreatment plus XVIb", "setting": "male rats [3]; scopolamine, XVIb 16 mg/kg ip, n=6", "result": "1.2±0.3", "unit": "erections/60 minutes"}]}, {"molecule": "(±)-trans-N-[2-(1-(4-methyl)piperazinyl)cyclohexyl]naphthalene-2-acetamide monohydrochloride [XVb]", "values": [{"measurement": "number of test animals having Grade 0 penile response (glans are hidden from the view)", "setting": "male primates", "result": 1}, {"measurement": "number of test animals having Grade 1 penile response (glans are clearly visible)", "setting": "male primates", "result": 2}, {"measurement": "number of test animals having Grade 2 penile response (penis is extended)", "setting": "male primates", "result": 2}, {"measurement": "number of test animals having Grade 3 penile response (full erection)", "setting": "male primates", "result": 1}, {"measurement": "number of test animals having Grade 4 penile response (erection with masturbation)", "setting": "male primates", "result": 0}, {"measurement": "number of test animals having Grade 5 penile response (erection with masturbation and ejaculation)", "setting": "male primates", "result": 0}]}, {"molecule": "COc1ccc(CC(=O)N2CCN(C)CC2)cc1OC", "note": "[XVIIb, 1-Methyl-4-(3,4-Dimethoxyacetyl)Piperazine Monohydrochloride]", "values": [{"measurement": "Responders", "setting": "male rats [4]", "result": 100, "unit": "%"}, {"measurement": "latency to first erection", "setting": "male rats [4]", "result": 16, "unit": "min"}, {"measurement": "maximum number of erections/rat", "setting": "male rats [4]", "result": 5, "unit": "h⁻¹"}]}, {"molecule": "CN1CCN(C(=O)Cc2ccc(Cl)c(Cl)c2)CC1", "note": "[XVIIa, 1-Methyl-4-(2-(3,4-Dichlorophenyl)acetyl)piperazine Monohydrochloride]", "values": [{"measurement": "Responders", "setting": "male rats [4]", "result": 67, "unit": "%"}, {"measurement": "latency to first erection", "setting": "male rats [4]", "result": 6, "unit": "min"}, {"measurement": "maximum number of erections/rat", "setting": "male rats [4]", "result": 3, "unit": "h⁻¹"}]}, {"molecule": "(±)-trans-[2-(1-(4-methyl)piperazinyl)cyclohexyl]naphthalene-1-acetate monohydrochloride [XVc]", "values": [{"measurement": "number of test animals having Grade 0 penile response (glans are hidden from the view)", "setting": "male primates", "result": 1}, {"measurement": "number of test animals having Grade 1 penile response (glans are clearly visible)", "setting": "male primates", "result": 2}, {"measurement": "number of test animals having Grade 2 penile response (penis is extended)", "setting": "male primates", "result": 2}, {"measurement": "number of test animals having Grade 3 penile response (full erection)", "setting": "male primates", "result": 2}, {"measurement": "number of test animals having Grade 4 penile response (erection with masturbation)", "setting": "male primates", "result": 2}, {"measurement": "number of test animals having Grade 5 penile response (erection with masturbation and ejaculation)", "setting": "male primates", "result": 1}]}, {"molecule": "(±)-trans-N-methyl-[2-(1-(4-methyl)piperazinyl)cyclohexyl]naphthalene-1-acetamide monohydrochloride [Compound XVa]", "values": [{"measurement": "number of test animals having Grade 0 penile response (glans are hidden from the view)", "setting": "male primates", "result": 1}, {"measurement": "number of test animals having Grade 1 penile response (glans are clearly visible)", "setting": "male primates", "result": 2}, {"measurement": "number of test animals having Grade 2 penile response (penis is extended)", "setting": "male primates", "result": 2}, {"measurement": "number of test animals having Grade 3 penile response (full erection)", "setting": "male primates", "result": 2}, {"measurement": "number of test animals having Grade 4 penile response (erection with masturbation)", "setting": "male primates", "result": 2}, {"measurement": "number of test animals having Grade 5 penile response (erection with masturbation and ejaculation)", "setting": "male primates", "result": 0}]}]}
